Measured values taken from patent US20180251425A1, “2,3,5 TRISUBSTITUTED PYRROLE DERIVATIVES AS TOPOISOMERASE INHIBITORS AND THERAPEUTIC USES THEREOF” (UNIVERSITY OF MYSORE, priority 2015, published 2018).

Columns and labels:
Assay type in all cases: cell-based
[1] = system: Molt4; assay: Cytotoxicity (MTT / trypan blue) in Molt4 cells; settings: Homo sapiens, MOLT-4, read-out: Cytotoxicity IC 50 in μM (Cell lines) Molt4
Protocol: (§1) Human cancer cell lines, K562, MCF7, HeLa and HEK 293T were purchased from National Centre for Cell Science, Pune, India. Cells were grown in RPMI 1640/MEM/DMEM supplemented with 10% heat-inactivated fetal bovine serum (FBS), 100 U/mL of Penicillin, and 100 μg of streptomycin/mL and incubated at 37° C. in a humidified atmosphere containing 5% CO2.
(§2) Nalm6, Molt4 and Reh cells were provided by Dr. Sathees C. Raghavan, Department of Biochemistry, IISc, Bangalore. The cells were grown under the similar culture conditions as mentioned above.
(§3) The human T cell leukemia cell line Molt4, Human acute lymphoblastic leukemia (ALL) cell line Nalm6, Human acute myelocytic leukemia (AML) cell line Reh, chronic myelogenous leukemia (CML) cell line K562, Human breast adenocarcinoma cell lines like MCF7 and human kidney cell line HEK 293T (Human embryonic kidney cell line) were selected for the purpose of preliminary anticancer screening of newly synthesized compounds (ASR1 to ASR15). To check the cytotoxicity, trypan blue dye exclusion assays, MTT assay were employed as described earlier Further, Cell cycle analysis, Mitochondrial membrane potential, Annexin-V FITC staining assay were also performed in order to understand the mode of cell death after treatment with ASR6. Further, ASR6 was also tested for its ability to inhibit topoisomerase I and II activity in vitro.
(§4) Cytotoxic effect of the newly synthesized compounds against leukemic cells was assessed using 3-(4, 5-dimethyl-2-yl02, 5-diphenyl tetrazolium bromide (MTT) assay. After exposure of compound at different concentration (0.01, 0.1, 0.5, 1, 10, 50 and 100 μM) cells were harvested and transferred into 96 well plate, MTT (5 mg/ml) was added and incubate at 37° C. for 4 h and formazan crystals were dissolved by adding solubilizing agent (10% SDS and 50% dimethyl formamide) for 1 h, finally plate was read at 570 nm (Bio-Rad, USA). Results were represented as inhibition of percentage of cell proliferation in bar diagram (n=3) (FIGS. 1 A, C, E and G).
(§5) To determine the growth inhibitory activity of the drug, 0.5×10^5 cell/ml were plated in 24 well (Biofil, USA.) in 1 ml of complete medium and treated with various concentration of the compound to test, cells were stained with 0.4% trypan blue and counted on a hemocytometer after treatment with compounds at 48 and 72 h time point. Results were represented as number of viable cells/ml in bar diagram (FIGS. 1 B, D, F, and H) (n=3).

[2] = system: Nalm6; assay: Cytotoxicity (MTT / trypan blue) in Nalm6 cells; settings: Homo sapiens, NALM-6, read-out: Cytotoxicity IC 50 in μM (Cell lines) Nalm6
Protocol: as §1, §2, §3, §4, §5

[3] = system: Reh; assay: Cytotoxicity (MTT / trypan blue) in Reh cells; settings: Homo sapiens, read-out: Cytotoxicity IC 50 in μM (Cell lines) Reh
Protocol: as §1, §2, §3, §4, §5

[4] = system: K562; assay: Cytotoxicity (MTT / trypan blue) in K562 cells; settings: Homo sapiens, read-out: Cytotoxicity IC 50 in μM (Cell lines) K562
Protocol: as §1, §3, §4, §5

[5] = system: MCF7; assay: Cytotoxicity in MCF7 cells; settings: Homo sapiens, read-out: Cytotoxicity IC 50 in μM (Cell lines) MCF7
Protocol: as §1, §3, §4, §5

[6] = system: HeLa; assay: Cytotoxicity in HeLa cells; settings: Homo sapiens, read-out: Cytotoxicity IC 50 in μM (Cell lines) HeLa
Protocol: as §1
as §4, with “G). […]” for “G).”

SMILES | IC50 [1] [µM] | IC50 [2] [µM] | IC50 [3] [µM] | IC50 [4] [µM] | IC50 [5] [µM] | IC50 [6] [µM]
CCOC(=O)c1[nH]c(-c2ccc(OC)cc2)cc1-c1cccc(C)c1 [ASR2, Ethyl 5-(4-methoxyphenyl)-3-m-tolyl-1H-pyrrole-2-carboxylate] | > 50 | > 50 | > 100 | > 100 | > 100 | > 100
CCOC(=O)c1[nH]c(-c2ccc(OC)c(OC)c2)cc1-c1ccc(C(F)(F)F)cc1 [ASR10, Ethyl 5-(3,4-dimethoxyphenyl)-3-(4-(trifluoromethyl)phenyl)-1H-pyrrole-2-carboxylate] | 7.96 | 20 | > 100 | > 100 | > 100 | > 100
CCOC(=O)c1[nH]c(-c2ccccc2)cc1-c1ccccc1 [ASR1, Ethyl 3,5-diphenyl-1H-pyrrole-2-carboxylate] | > 50 | > 50 | > 100 | > 100 | > 100 | > 100
CCOC(=O)c1[nH]c(-c2cc(OC)c(OC)c(OC)c2)cc1-c1cccs1 [ASR14, Ethyl 3-(thiophen-2-yl)-5-(3,4,5-trimethoxyphenyl)-1H-pyrrole-2-carboxylate] | 15.2 | 10.5 | > 100 | > 100 | > 100 | > 100
CCOC(=O)c1[nH]c(-c2cccs2)cc1-c1cccs1 [ASR8, Ethyl 3,5-di(thiophen-2-yl)-1H-pyrrole-2-carboxylate] | 35.3 | > 50 | > 100 | > 100 | > 100 | > 100
CCOC(=O)c1[nH]c(-c2cccc(OC)c2)cc1-c1ccncc1 [ASR15, Ethyl 5-(3-methoxyphenyl)-3-(pyridin-4-yl)-1H-pyrrole-2-carboxylate] | 12.9 | 5.4 | > 100 | > 100 | > 100 | > 100
CCOC(=O)c1[nH]c(-c2ccc(Cl)cc2)cc1-c1ccc2ccccc2c1 [ASR7, Ethyl 5-(4-chlorophenyl)-3-(naphthalen-2-yl)-1H-pyrrole-2-carboxylate] | 30.8 | > 50 | > 100 | > 100 | > 100 | > 100
CCOC(=O)c1[nH]c(-c2ccc(C)cc2)cc1-c1cccc([N+](=O)[O-])c1 [ASR4, Ethyl 3-(3-nitrophenyl)-5-p-tolyl-1H-pyrrole-2-carboxylate] | > 50 | > 50 | > 100 | > 100 | > 100 | > 100
COC(=O)c1[nH]c(-c2ccc(C)cc2)cc1-c1cccc([N+](=O)[O-])c1 [ASR13, Methyl 3-(3-nitrophenyl)-5-p-tolyl-1H-pyrrole-2-carboxylate] | 8.84 | 11 | > 100 | > 100 | > 100 | > 100
CCOC(=O)c1[nH]c(-c2cccs2)cc1-c1ccc(Br)cc1 [ASR9, Ethyl 3-(4-bromophenyl)-5-(thiophen-2-yl)-1H-pyrrole-2-carboxylate] | 50 | > 50 | > 100 | > 100 | > 100 | > 100
CCOC(=O)c1[nH]c(-c2ccc(OC)c(OC)c2)cc1-c1ccncc1 [ASR12, Ethyl 5-(3,4-dimethoxyphenyl)-3-(pyridin-4-yl)-1H-pyrrole-2-carboxylate] | 26.1 | 14.3 | > 100 | > 100 | > 100 | > 100
COC(=O)c1[nH]c(-c2cccc(OC)c2)cc1-c1ccc(C(F)(F)F)cc1 [ASR11, Methyl 5-(3-methoxyphenyl)-3-(4-(trifluoromethyl)phenyl)-1H-pyrrole-2-carboxylate] | 17 | 9.53 | > 100 | > 100 | > 100 | > 100
CCOC(=O)c1[nH]c(-c2ccc(C)cc2)cc1-c1ccc(C#N)cc1 [ASR5, Ethyl 3-(4-cyanophenyl)-5-p-tolyl-1H-pyrrole-2-carboxylate] | > 50 | > 50 | > 100 | > 100 | > 100 | > 100
CCOC(=O)c1[nH]c(-c2ccc(OC)cc2)cc1-c1ccco1 [ASR3, Ethyl 3-(furan-2-yl)-5-(4-methoxyphenyl)-1H-pyrrole-2-carboxylate] | > 50 | > 50 | > 100 | > 100 | > 100 | > 100
